Data as given in US10894054B2, “FXR agonist compositions for combination therapy” (Intercept Pharmaceuticals, Inc., priority 2015, dated 2021).

Key:
[1] = test system: DIO-NASH mice; assay: Oral glucose tolerance test (OGTT); type: in vivo, male C57BL/6 mice; settings: alone or combined, PO QD, DIO-NASH vehicle 1762 ± 45
Procedure: Blood samples were collected into 10 μL heparinized glass capillary tubes. The sample was immediately suspended in buffer (0.5 ml of glucose/lactate system solution (EKF-diagnostics, Germany) and analyzed for glucose on the test day using a BIOSEN c-Line glucose meter (EKF-diagnostics, Germany). For triglyceride and cholesterol content, 100 μl blood was collected into Lithium-Heparin tubes. Plasma was separated and samples were stored at 4° C. for one day prior to analysis.
In week 4 (LIRA and MET combinations) or week 6 (SIT combination) of treatment, an OGTT was performed in conscious free-moving animals. […] Animals were fasted for 4 h prior to test start (food removal from 6 AM to 10 AM). At t=0, mice received an oral bolus of glucose (2 g/kg) (200 mg/ml; Fresenius Kabi, Sweden) by oral gavage (10 ml/kg). Blood samples were collected from the tail vein (by snipping) and blood glucose was measured at time point 0, 15, 30, 60 and 120 minutes after the oral glucose administration. Mice were re-fed after the blood sampling and drug dosed as per usual.

[2] = test system: HFD-induced rabbit model of MetS; settings: cited from earlier work
[3] = high dose: OCA 30 mg/kg, MET 150 mg/kg
[4] = low dose: OCA 10 mg/kg, MET 50 mg/kg
[5] = HFD rabbits, in vivo OCA dosing

Compound | OGTT Blood Glucose AUC, Week 4 [1, 3] | OGTT Blood Glucose AUC, Week 4 [1, 4] | adipocyte size, hypoxia, and expression of perilipin and GLUT4 (SLC2A4) in VAT ([2]; HFD rabbits vs rabbits on a control diet, immunohistochemistry, Western blot, RT-PCR) | amount of visceral AT (VAT) [2, 5] | expression of steatosis and inflammation markers [2, 5] | insulin resistance and metabolic profile [2, 5]
CN(C)C(=N)N=C(N)N [MET, metformin, reference compound] | 1480 ± 53 mmol·min/L | 1698 ± 31 mmol·min/L | – | – | – | –
CC[C@H]1[C@@H](O)[C@@H]2[C@H](CC[C@]3(C)[C@@H]([C@H](C)CCC(=O)O)CC[C@@H]23)[C@@]2(C)CC[C@@H](O)C[C@@H]12 [OCA, 3α,7α-dihydroxy-6α-ethyl-5β-cholan-24-oic acid] | 1778 ± 88 mmol·min/L | 1680 ± 71 mmol·min/L | normalizes | marked reduction | normalizes | ameliorates insulin resistance and the metabolic profile
